Experimental data published in patent publication US7446117B2, “Cox-2 inhibiting pyridine derivatives” (Glaxo Group Limited, priority 2002, dated 2008).
pIC50: −log10 of the molar value.

Biological target: T1, microsomal h-COX2 (Homo sapiens, UniProt P35354)
T1 construct: made in house; host or cells: baculovirus infected SF9 cells (microsomal preparation)
T1 sequence (P35354 18-604): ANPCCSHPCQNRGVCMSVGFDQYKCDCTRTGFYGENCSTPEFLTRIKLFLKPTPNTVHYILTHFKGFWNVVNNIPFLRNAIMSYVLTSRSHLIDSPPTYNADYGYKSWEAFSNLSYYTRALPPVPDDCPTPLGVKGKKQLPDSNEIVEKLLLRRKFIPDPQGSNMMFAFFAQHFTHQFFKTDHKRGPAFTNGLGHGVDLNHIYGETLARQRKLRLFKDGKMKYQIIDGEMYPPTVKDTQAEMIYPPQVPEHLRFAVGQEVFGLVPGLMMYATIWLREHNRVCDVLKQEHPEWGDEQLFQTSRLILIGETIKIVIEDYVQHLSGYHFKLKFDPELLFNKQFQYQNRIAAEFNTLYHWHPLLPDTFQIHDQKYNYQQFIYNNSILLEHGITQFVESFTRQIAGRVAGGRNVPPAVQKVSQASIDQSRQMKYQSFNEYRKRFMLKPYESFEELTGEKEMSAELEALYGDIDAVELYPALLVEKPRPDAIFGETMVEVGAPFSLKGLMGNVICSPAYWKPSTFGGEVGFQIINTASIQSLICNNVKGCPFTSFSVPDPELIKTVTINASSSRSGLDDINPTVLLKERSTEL
Assay: Microsomal assay: inhibitory activity against microsomal h-COX2
Type: biochemical
Settings: microsomal preparation from baculovirus infected SF9 cells; 1 hour incubation with compound; 0.1 μM arachidonic acid, 10 minutes; PGE2 by EIA; read-out: IC50 values for inhibition of COX-2
Protocol: Biological Data Microsomal Assay
Inhibitory activity against microsomal h-COX2 was assessed against a microsomal preparation from baculovirus infected SF9 cells. An aliquot of microsomal preparation was thawed slowly on ice and a 1/40,000 dilution prepared from it into the assay buffer (sterile water, degassed with argon containing 100 mM HEPES (pH 7.4), 10 mM EDTA (pH7.4), 1 mM phenol, 1 mM reduced glutathione, 20 mg/ml gelatin and 0.001 mM Hematin). Once diluted the enzyme solution was then sonicated for 5 seconds (Branson sonicator, setting 4, 1 cm tip) to ensure a homogeneous suspension. 155 μl enzyme solution was then added to each well of a 96-well microtitre plate containing either 5 μl test compound (40× required test concentration) or 5 μl DMSO for controls. Plates were then mixed and incubated at room temperature for 1 hour. Following the incubation period, 40 μl of 0.5 μM arachidonic acid was added to each well to give a final concentration of 0.1 μM. Plates were then mixed and incubated for exactly 10 minutes (room temperature) prior to addition of 25 μl 1M HCl (hydrochloric acid) to each well to stop the reaction. 25 μl of 1M NaOH (sodium hydroxide) was then added to each well to neutralise the solution prior to determination of PGE2 levels by enzyme immunoassay (EIA).

Compound	pIC50
Cc1cc(NC2CCCC2)nc(-c2ccc(S(C)(=O)=O)cc2)c1 [Example 1, N-Cyclopentyl-4-methyl-6-[4-(methylsulfonyl)phenyl]pyridine-2-amine]	≥ 6.30
Cc1cc(OCc2ccccc2)nc(-c2ccc(S(C)(=O)=O)cc2)c1 [Example 2, 2-Benzyloxy-4-methyl-6-[4-(methylsulfonyl)phenyl]pyridine]	≥ 6.30
Cc1cc(-c2ccc(S(C)(=O)=O)cc2)nc(N(C)Cc2ccccc2)c1 [Example 3, N-Benzyl-N-methyl-4-methyl-6-[4-(methylsulfonyl)phenyl]pyridine-2-amine]	≥ 6.30
Cc1cc(NCc2ccc(Cl)cc2)nc(-c2ccc(S(C)(=O)=O)cc2)c1 [Example 4]	≥ 6.30
CN(Cc1ccccc1)c1cc(C(F)(F)F)cc(-c2ccc(S(C)(=O)=O)cc2)n1 [Example 5]	≥ 6.30
CS(=O)(=O)c1ccc(-c2cc(C(F)(F)F)cc(NCc3ccco3)n2)cc1 [Example 6]	≥ 6.30
Cc1cc(NCc2ccccc2)nc(-c2ccc(S(C)(=O)=O)cc2)c1 [Example 7]	≥ 6.30
CS(=O)(=O)c1ccc(-c2cc(C(F)(F)F)cc(NCC3CCCCC3)n2)cc1 [Example 8]	≥ 6.30
COc1ccc(Nc2cc(C)cc(-c3ccc(S(C)(=O)=O)cc3)n2)cc1 [Example 9]	≥ 6.30
Cc1cc(OCC(C)C)nc(-c2ccc(S(C)(=O)=O)cc2)c1 [Example 10]	≥ 6.30
Cc1cc(Oc2cccnc2)nc(-c2ccc(S(C)(=O)=O)cc2)c1 [Example 11]	≥ 6.30
C=CCNc1cc(C(F)(F)F)cc(-c2ccc(S(C)(=O)=O)cc2)n1 [Example 12]	≥ 6.30
Cc1cc(Nc2ccccc2Cl)nc(-c2ccc(S(C)(=O)=O)cc2)c1 [Example 13]	≥ 6.30
Cc1cc(NCc2cc(F)cc(F)c2)nc(-c2ccc(S(C)(=O)=O)cc2)c1 [Example 14]	≥ 6.30
Cc1cc(NCc2cccnc2)nc(-c2ccc(S(C)(=O)=O)cc2)c1 [Example 15]	≥ 6.30
COc1ccc(Nc2cc(C(F)(F)F)cc(-c3ccc(S(C)(=O)=O)cc3)n2)cc1 [Example 16]	≥ 6.30
Cc1cc(NC2CCCCC2)nc(-c2ccc(S(C)(=O)=O)cc2)c1 [Example 17]	≥ 6.30

Compound	pIC50
CCCCNc1cc(C(F)(F)F)cc(-c2ccc(S(C)(=O)=O)cc2)n1 [Example 18]	≥ 6.30
CC(C)CNc1cc(C(F)(F)F)cc(-c2ccc(S(C)(=O)=O)cc2)n1 [Example 19]	≥ 6.30
COc1ccc(CNc2cc(C)cc(-c3ccc(S(C)(=O)=O)cc3)n2)cc1 [Example 20]	≥ 6.30
Cc1cc(NCc2ccc(F)cc2)nc(-c2ccc(S(C)(=O)=O)cc2)c1 [Example 21]	≥ 6.30
Cc1ccc(CNc2cc(C(F)(F)F)cc(-c3ccc(S(C)(=O)=O)cc3)n2)o1 [Example 22]	≥ 6.30
CCCCNc1cc(C)cc(-c2ccc(S(C)(=O)=O)cc2)n1 [Example 23]	≥ 6.30
Cc1cc(NCc2ccco2)nc(-c2ccc(S(C)(=O)=O)cc2)c1 [Example 24]	≥ 6.30
Cc1ccc(CNc2cc(C)cc(-c3ccc(S(C)(=O)=O)cc3)n2)cc1 [Example 25]	≥ 6.30
CS(=O)(=O)c1ccc(-c2cc(C(F)(F)F)cc(NC3CCCC3)n2)cc1 [Example 26]	≥ 6.30
Cc1cc(NCc2ccncc2)nc(-c2ccc(S(C)(=O)=O)cc2)c1 [Example 27]	≥ 6.30
Cc1cc(NCc2ccccn2)nc(-c2ccc(S(C)(=O)=O)cc2)c1 [Example 28]	≥ 6.30
CCOc1ccc(CNc2cc(C)cc(-c3ccc(S(C)(=O)=O)cc3)n2)cc1 [Example 30]	≥ 6.30
Cc1cc(NCC(C)C)nc(-c2ccc(S(C)(=O)=O)cc2)c1 [Example 31]	≥ 6.30
Cc1cc(Nc2ccc(F)cc2)nc(-c2ccc(S(C)(=O)=O)cc2)c1 [Example 43]	≥ 6.30
Cc1cc(NCc2cccs2)nc(-c2ccc(S(C)(=O)=O)cc2)c1 [Example 44]	≥ 6.30
CCc1cc(-c2ccc(S(C)(=O)=O)cc2)nc(N(C)Cc2ccccc2)c1 [Example 45]	≥ 6.30

Continued, values first:

pIC50	Compound
≥ 6.30	CCc1cc(NCC2CCOCC2)nc(-c2ccc(S(C)(=O)=O)cc2)c1 [Example 46]
≥ 6.30	CCc1cc(NCC(C)C)nc(-c2ccc(S(C)(=O)=O)cc2)c1 [Example 47]
≥ 6.30	Cc1ccc(CNc2cc(C(F)(F)F)cc(-c3ccc(S(C)(=O)=O)cc3)n2)cc1 [Example 48]
≥ 6.30	Cc1ccccc1CNc1cc(C(F)(F)F)cc(-c2ccc(S(C)(=O)=O)cc2)n1 [Example 49]
≥ 6.30	CS(=O)(=O)c1ccc(-c2cc(C(F)(F)F)cc(NCc3ccccc3Cl)n2)cc1 [Example 50]
≥ 6.30	Cc1cnc(CNc2cc(C(F)(F)F)cc(-c3ccc(S(C)(=O)=O)cc3)n2)cn1 [Example 51]
≥ 6.30	C[C@H](Nc1cc(C(F)(F)F)cc(-c2ccc(S(C)(=O)=O)cc2)n1)c1ccccc1 [Example 52]
≥ 6.30	C[C@@H](Nc1cc(C(F)(F)F)cc(-c2ccc(S(C)(=O)=O)cc2)n1)c1ccccc1 [Example 53]
≥ 6.30	CS(=O)(=O)c1ccc(-c2cc(C(F)(F)F)cc(NC3CCCCC3)n2)cc1 [Example 54, N-cyclohexyl-4-(trifluoromethyl)-6-[4-(methylsulfonyl)phenyl]pyridine-2-amine]
≥ 6.30	COc1ccc(CNc2cc(C(F)(F)F)cc(-c3ccc(S(C)(=O)=O)cc3)n2)cc1 [Example 55]
≥ 6.30	Cc1cc(Nc2ccc(C)nc2)nc(-c2ccc(S(C)(=O)=O)cc2)c1 [Example 56]
≥ 6.30	Cc1ccc(-c2ccc(S(C)(=O)=O)cc2)nc1NCc1ccccc1 [Example 57]
≥ 6.30	Cc1cc(-c2ccc(S(C)(=O)=O)cc2)nc(N(C)Cc2ccccc2)c1C [Example 58]
≥ 6.30	Cc1cc(-c2ccc(S(C)(=O)=O)cc2)nc(NCc2ccccc2)c1C [Example 59]
≥ 6.30	Cc1cc(-c2ccc(S(C)(=O)=O)cc2)nc(NCC(C)C)c1C [Example 60]
≥ 6.30	CN(Cc1ccccc1)c1cccc(-c2ccc(S(C)(=O)=O)cc2)n1 [Example 61]
≥ 6.30	Cc1cc(-c2ccc(S(C)(=O)=O)cn2)nc(N(C)Cc2ccccc2)c1 [Example 62]
≥ 6.30	Cc1cc(-c2ccc(S(C)(=O)=O)cc2)nc(N2CCCCC2)c1C [Example 66]
≥ 6.30	Cc1cc(NCc2ccccc2)nc(-c2ccc(S(C)(=O)=O)c(F)c2)c1 [Example 67]
≥ 6.30	Cc1cc(-c2ccc(S(C)(=O)=O)cc2)nc(N(C)Cc2cccc(C)n2)c1 [Example 68]
≥ 6.30	CCc1cc(NCc2ccco2)nc(-c2ccc(S(C)(=O)=O)cc2)c1 [Example 69]
≥ 6.30	COc1ccc(Nc2cc(C)cc(-c3ccc(S(C)(=O)=O)cn3)n2)cc1 [Example 70]
≥ 6.30	CCC(CC)Nc1cc(C)cc(-c2ccc(S(C)(=O)=O)cc2)n1 [Example 74]
≥ 6.30	CS(=O)(=O)c1ccc(-c2cccc(NCc3ccccc3)n2)cc1 [Example 75]
≥ 6.30	Cc1cc(NCc2ncc[nH]2)nc(-c2ccc(S(C)(=O)=O)cc2)c1 [Example 76]
≥ 6.30	Cc1cc(NCc2nccn2C)nc(-c2ccc(S(C)(=O)=O)cc2)c1 [Example 80]
≥ 6.30	Cc1cc(NCc2c[nH]nc2C)nc(-c2ccc(S(C)(=O)=O)cc2)c1 [Example 81]
≥ 6.30	Cc1cc(NCc2ccn(C)n2)nc(-c2ccc(S(C)(=O)=O)cc2)c1 [Example 82]
